Here are results for eight molecules from paper PMC7913524, “Novel Biphenyl Amines Inhibit Oestrogen Receptor (ER)-α in ER-Positive Mammary Carcinoma Cells” (Molecules, 2021).

Data set [1] has as its system MCF7 cells. Kind of data set: AlamarBlue cell viability assay, MCF7. The class given is cell-based, human. The settings on record: read-out: Cell Viability (MCF7 Cells) IC50 ± SD. As for the experimental part: (§1) Next, we determined the potential functional effects of novel ATBA compounds on the viability of MCF7 cells using an AlamarBlue® cell viability assay. […] We also determined the functional efficacy of the 4c compound in additional ER+ MC cell lines using an AlamarBlue® cell viability assay.
The human Michigan Cancer Foundation-7 (MCF7) cell line was obtained from the American Type Culture Collection (ATCC, Rockville, Gaithersburg, MD, USA) and was cultured as per ATCC propagation instructions.
(§2) AlamarBlue®, 3D Matrigel, and luciferase assay: AlamarBlue® cell viability kits were obtained from ThemoFisher Scientific (Waltham, Massachusetts, USA), and the assay was performed as previously described. 3D Matrigel assays were performed as previously described. Luciferase assays were performed as previously described. Briefly, transfections were carried out in triplicate using 1 μg of the appropriate luciferase reporter construct or empty vector along with 0.1 μg of Renilla luciferase construct as a control for transfection efficiency. Luciferase activities were measured using the Dual-Luciferase Assay System (Promega Corp, Madison, WI, USA).
For orientation: Alamar Blue is a resazurin reagent that responds to reducing activity.

The test system of data set [2] is oestrogen response element (ERE) transcriptional activity (ERα). The data set can be described thus: ERE-luc luciferase reporter assay in MCF7 cells. The class given is cell-based, human. The settings on record: for antagonist activity against ERα (luciferase activity): MCF7 cells, with E2 10^-8 M, compounds 10^-10 to 10^-4 M. As for the experimental part: as §2, with “Next, to evaluate the activity of the synthesized compounds as agonists or antagonists to ERα, a reporter assay was performed with ERE-luc. […] AlamarBlue®,” for “AlamarBlue®,”, “USA). […] (lower panel). MCF7 cells were co-transfected with ERE-luc (firefly luciferase) and Renilla luciferase constructs as described in the Materials and Methods section. […] Results are shown as mean (+SD for triplicate transfection).” for “USA).”

Data set [3] has as its system MCF7 cell-generated spheroids. Kind of data set: 3D Matrigel spheroid cell viability. The settings on record: preformed MCF7 spheroids in 3D Matrigel, 5 µM, 72 h. The class given is cell-based, human. As for the experimental part: Furthermore, we examined the effect of the novel biphenyl derivatives on preformed spheroids generated using MC cells in 3D Matrigel (Figure 2).
as §2
Figure 2 Cell viability of MCF7 cell-generated spheroids after culture in 3D Matrigel for 10 days. Preformed MCF7 cell-generated spheroids were treated with compounds for 72 h before assessing cell viability. A concentration of 5 µM was used for the treatment. The cell viability of the MCF7 cell-generated spheroids was evaluated using an AlamarBlue® viability assay as described in the Materials and Methods section. Bars are the mean of triplicate experiments; bars, ±SD. ** P < 0.001, * P < 0.05.

Data set [4] has as its target T1, ERα (Homo sapiens, UniProt P03372).
T1 construct: purchased Life Technologies
T1 sequence (P03372 1-595): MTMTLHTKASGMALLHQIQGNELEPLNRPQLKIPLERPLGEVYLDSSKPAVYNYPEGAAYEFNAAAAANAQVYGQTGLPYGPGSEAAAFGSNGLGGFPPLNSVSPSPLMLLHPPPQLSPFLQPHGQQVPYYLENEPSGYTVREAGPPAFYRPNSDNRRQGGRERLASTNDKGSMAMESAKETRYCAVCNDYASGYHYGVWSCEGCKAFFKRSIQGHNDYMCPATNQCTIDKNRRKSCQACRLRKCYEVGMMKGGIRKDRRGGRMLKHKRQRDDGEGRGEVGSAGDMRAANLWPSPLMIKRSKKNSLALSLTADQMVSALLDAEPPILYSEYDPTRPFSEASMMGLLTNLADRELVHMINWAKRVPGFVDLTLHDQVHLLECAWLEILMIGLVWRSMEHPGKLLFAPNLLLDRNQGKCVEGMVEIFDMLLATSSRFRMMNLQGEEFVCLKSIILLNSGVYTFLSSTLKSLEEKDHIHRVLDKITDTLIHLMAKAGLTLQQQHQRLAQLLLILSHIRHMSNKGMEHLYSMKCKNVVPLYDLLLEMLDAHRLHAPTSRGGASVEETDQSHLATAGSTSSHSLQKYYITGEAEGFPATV
Kind of data set: ER-alpha competitive binding assay (PolarScreen ER Alpha Competitor, fluorescence polarization). The settings on record: read-out: CBA IC50 + SD (competitive binding affinity). From the text: First, to rank the novel biphenyl derivatives based on binding affinity to ERα, a commercially available fluorescence polarization assay kit (PolarScreen™ ER Alpha Competitor assay) was utilized. […] The smaller size of the free molecule can be discerned by increased mobility in the solution, which is detected by fluorescence polarization (FP). A shift in the FP value in the presence of the test compounds is used to determine the relative affinity of test compounds for ERα.
The assay was performed as per the manufacturer’s instructions. The Fluorescence polarization value (mP) of each well on a fluorescence polarization plate was measured using fluorescence polarization Tecan infinite M1000PRO multimode microplate reader (Tecan, Switzerland). Data were modelled using GraphPad Prism® software from GraphPad Software, Inc..

Data set [5] deals with T47D cells. The data set can be described thus: AlamarBlue cell viability assay, T47D. The class given is cell-based. The settings on record: Homo sapiens. As for the experimental part:
as §1, §2

Data set [6] concerns CCND1 protein expression. Kind of data set: Western blot of CCND1 in MCF7 cells. The format is cell-based, human. As for the experimental part:
Increased expression of CCND1 is associated with approximately 50% of breast cancer cases and directly regulated by ER signalling. To determine functional effects downstream of ERα, we examined the effect of ATBA compounds on hCCND1 protein expression in MC cells. […] Western blot analysis: Western blot analysis was performed as previously described, using a primary monoclonal antibody against CCND1 and β-ACTIN obtained from Cell Signalling, Danvers, Massachusetts, USA. Quantification of blot was performed by use of ImageJ software from NIH, USA (http://imagej.nih.gov/ij/) as described previously. […] Soluble whole-cell extracts were run on an SDS-PAGE and immunoblotted. β-ACTIN was used as input control for cell lysate (left side). The predicted sizes of detected protein bands in kDa are shown on the left side. The average of three independent densitometry analyses of CCND1 and β-ACTIN is shown above (right side) by use of Image J software from NIH, USA (http://imagej.nih.gov/ij/) as described previously.
A general note: In western blotting, separated proteins are transferred to a membrane and probed.

In data set [7] the test system is MDA-MB-361 cells. Kind of data set: AlamarBlue cell viability assay, MDA-MB-361. The format is cell-based. The settings on record: Homo sapiens. Here is the method:
as §1, §2

The subject of data set [8] is BT474 cells. Kind of data set: AlamarBlue cell viability assay, BT474. The format is cell-based. The settings on record: Homo sapiens, BT-474. As for the experimental part: as §1, §2
Data set [9] is described as follows: vNN-ADMET prediction: MRTD. The settings on record: relative to TAM.

Like-named read-outs stand apart in the source and are kept apart here.

Broadly, the IC50 is the concentration that inhibits the measured activity by half. On to `COc1ccc(Nc2cccnc2)cc1C12CC3CC(CC(C3)C1)C2` [4g], for which the IC50 stood at 12.1 ± 3.07 µM in [1] (Homo sapiens, MCF7, AlamarBlue) and 0.129 µM in [4]. Moreover, in [2], the “antagonist activity against ERα (luciferase activity)” value (from here on “antagonist activity against ERα”) is listed as “most potent antagonist activity against ERα in a dosage-dependent manner”. For the same molecule, the “cell viability of spheroids compared to vehicle (DMSO)” value in data set [3] is on record as “significantly decreased cell viability”.
As to `COc1ccc(Nc2ccc(C(F)(F)F)cc2)cc1C12CC3CC(CC(C3)C1)C2` [4c, 3-(Adamantan-1-yl)-4-methoxy-N-(4-(trifluoromethyl)phenyl) aniline], the concentration for half-maximal inhibition (IC50) is 7.38 µM in data set [5]; 6.29 ± 2.41 µM in [1] (AlamarBlue); 6.4 µM in data set [1] (Homo sapiens, MCF7, AlamarBlue); 0.83 ± 0.06 µM in [2] (Homo sapiens, MCF7); 8.31 µM in data set [7]; 0.0628 µM in [4]. In data set [8], the midpoint of inhibition, the IC50, lay at 6.36 µM. For the same molecule, the “antagonist activity against ERα” value is recorded as “most potent antagonist activity against ERα in a dosage-dependent manner” in data set [2] and “significantly deceased ERE transcriptional activity” in [2] (listed as AMTA). The CCND1 protein levels entry in data set [6] is recorded as “most potently decreased the protein levels of CCND1 in MC cells in the nanomolar range”; in [6] (listed as AMTA) it was “significantly decreased protein levels of oestrogen-regulated CCND1 in a dose-dependent manner”. Besides, in data set [3], the “cell viability of spheroids compared to vehicle (DMSO)” value is given as “significantly decreased cell viability”. The “inhibitory effect on spheroids compared to TAM-treated spheroids” value is recorded as “significant inhibitory effect compared to TAM-treated MC cell-generated spheroids” in data set [3] and “superior inhibitory effect compared to tamoxifen-treated MC cell spheroids” in data set [3] (listed as AMTA). The “predicted maximum recommended therapeutic dose compared to TAM” value in data set [9] is “approximately four times higher”.
On to `COc1ccc(Nc2ccc(OC)c(C34CC5CC(CC(C5)C3)C4)c2)cc1` [4b, 3-(Adamantan-1-yl)-4-methoxy-N-(4-methoxyphenyl) aniline], for which the IC50 in data set [1] (Homo sapiens, MCF7, AlamarBlue) is more than 50 µM; in data set [4], 0.202 µM.
With `COc1ccc(Nc2cccc(O)c2)cc1C12CC3CC(CC(C3)C1)C2` [4d, 3-((3-(Adamantan-1-yl)-4-methoxyphenyl)amino) phenol], the half-inhibitory concentration (IC50) turned out to be 8.81 ± 1.85 µM in data set [1] (Homo sapiens, MCF7, AlamarBlue) and 0.0826 µM in data set [4]. For the same molecule, in data set [2], the “antagonist activity against ERα” value is on record as “most potent antagonist activity against ERα in a dosage-dependent manner”. Moreover, the “cell viability of spheroids compared to vehicle (DMSO)” value in data set [3] is “significantly decreased cell viability”.
With `COc1ccc(Nc2ccc(C)cn2)cc1C12CC3CC(CC(C3)C1)C2` [4h], the concentration for half-maximal inhibition (IC50) in [1] (AlamarBlue) is 42.2 ± 9.31 µM; in [1] (Homo sapiens, MCF7, AlamarBlue), approximately 50 µM; in [4], 0.189 µM.
On to `COc1ccc(Nc2ccc(C)cc2)cc1C12CC3CC(CC(C3)C1)C2` [4f, 3-(Adamantan-1-yl)-4-methoxy-N-(p-tolyl) aniline], for which the half-maximal inhibitory concentration (IC50) in data set [1] (Homo sapiens, MCF7, AlamarBlue) came to 12.3 ± 3.77 µM; in [4], 0.0985 µM. In addition, in data set [2], the “antagonist activity against ERα” value is on record as “most potent antagonist activity against ERα in a dosage-dependent manner”. In [3], the “cell viability of spheroids compared to vehicle (DMSO)” value is reported as “significantly decreased cell viability”.
Regarding `COc1ccc(Nc2ccc(Cl)cc2)cc1C12CC3CC(CC(C3)C1)C2` [4a, 3-(Adamantan-1-yl)-N-(4-chlorophenyl)-4-methoxyaniline], the IC50 is more than 50 µM in data set [1] (Homo sapiens, MCF7, AlamarBlue) and 0.34 µM in data set [4].
For the molecule `COc1ccc(Nc2cccc3ccccc23)cc1C12CC3CC(CC(C3)C1)C2` [4i], the 50% inhibitory concentration (IC50) is 47.6 ± 7.48 µM in data set [1] (AlamarBlue); approximately 50 µM in data set [1] (Homo sapiens, MCF7, AlamarBlue); 0.264 µM in data set [4].
